# From ChEMBL document CHEMBL6087427, “Discovery of novel cyclopentane carboxylic acids as potent and selective inhibitors of NaV1.7” (Bioorg Med Chem Lett, 2025)
# How the values were obtained:
# [1] = target: T1, Sodium channel protein type 9 subunit alpha (Homo sapiens, UniProt Q15858); experiment: Displacement of [3H]GX-545 from Nav1.7 VSD4 (unknown origin)
# Target sequence in this assay (Q15858 whole entry): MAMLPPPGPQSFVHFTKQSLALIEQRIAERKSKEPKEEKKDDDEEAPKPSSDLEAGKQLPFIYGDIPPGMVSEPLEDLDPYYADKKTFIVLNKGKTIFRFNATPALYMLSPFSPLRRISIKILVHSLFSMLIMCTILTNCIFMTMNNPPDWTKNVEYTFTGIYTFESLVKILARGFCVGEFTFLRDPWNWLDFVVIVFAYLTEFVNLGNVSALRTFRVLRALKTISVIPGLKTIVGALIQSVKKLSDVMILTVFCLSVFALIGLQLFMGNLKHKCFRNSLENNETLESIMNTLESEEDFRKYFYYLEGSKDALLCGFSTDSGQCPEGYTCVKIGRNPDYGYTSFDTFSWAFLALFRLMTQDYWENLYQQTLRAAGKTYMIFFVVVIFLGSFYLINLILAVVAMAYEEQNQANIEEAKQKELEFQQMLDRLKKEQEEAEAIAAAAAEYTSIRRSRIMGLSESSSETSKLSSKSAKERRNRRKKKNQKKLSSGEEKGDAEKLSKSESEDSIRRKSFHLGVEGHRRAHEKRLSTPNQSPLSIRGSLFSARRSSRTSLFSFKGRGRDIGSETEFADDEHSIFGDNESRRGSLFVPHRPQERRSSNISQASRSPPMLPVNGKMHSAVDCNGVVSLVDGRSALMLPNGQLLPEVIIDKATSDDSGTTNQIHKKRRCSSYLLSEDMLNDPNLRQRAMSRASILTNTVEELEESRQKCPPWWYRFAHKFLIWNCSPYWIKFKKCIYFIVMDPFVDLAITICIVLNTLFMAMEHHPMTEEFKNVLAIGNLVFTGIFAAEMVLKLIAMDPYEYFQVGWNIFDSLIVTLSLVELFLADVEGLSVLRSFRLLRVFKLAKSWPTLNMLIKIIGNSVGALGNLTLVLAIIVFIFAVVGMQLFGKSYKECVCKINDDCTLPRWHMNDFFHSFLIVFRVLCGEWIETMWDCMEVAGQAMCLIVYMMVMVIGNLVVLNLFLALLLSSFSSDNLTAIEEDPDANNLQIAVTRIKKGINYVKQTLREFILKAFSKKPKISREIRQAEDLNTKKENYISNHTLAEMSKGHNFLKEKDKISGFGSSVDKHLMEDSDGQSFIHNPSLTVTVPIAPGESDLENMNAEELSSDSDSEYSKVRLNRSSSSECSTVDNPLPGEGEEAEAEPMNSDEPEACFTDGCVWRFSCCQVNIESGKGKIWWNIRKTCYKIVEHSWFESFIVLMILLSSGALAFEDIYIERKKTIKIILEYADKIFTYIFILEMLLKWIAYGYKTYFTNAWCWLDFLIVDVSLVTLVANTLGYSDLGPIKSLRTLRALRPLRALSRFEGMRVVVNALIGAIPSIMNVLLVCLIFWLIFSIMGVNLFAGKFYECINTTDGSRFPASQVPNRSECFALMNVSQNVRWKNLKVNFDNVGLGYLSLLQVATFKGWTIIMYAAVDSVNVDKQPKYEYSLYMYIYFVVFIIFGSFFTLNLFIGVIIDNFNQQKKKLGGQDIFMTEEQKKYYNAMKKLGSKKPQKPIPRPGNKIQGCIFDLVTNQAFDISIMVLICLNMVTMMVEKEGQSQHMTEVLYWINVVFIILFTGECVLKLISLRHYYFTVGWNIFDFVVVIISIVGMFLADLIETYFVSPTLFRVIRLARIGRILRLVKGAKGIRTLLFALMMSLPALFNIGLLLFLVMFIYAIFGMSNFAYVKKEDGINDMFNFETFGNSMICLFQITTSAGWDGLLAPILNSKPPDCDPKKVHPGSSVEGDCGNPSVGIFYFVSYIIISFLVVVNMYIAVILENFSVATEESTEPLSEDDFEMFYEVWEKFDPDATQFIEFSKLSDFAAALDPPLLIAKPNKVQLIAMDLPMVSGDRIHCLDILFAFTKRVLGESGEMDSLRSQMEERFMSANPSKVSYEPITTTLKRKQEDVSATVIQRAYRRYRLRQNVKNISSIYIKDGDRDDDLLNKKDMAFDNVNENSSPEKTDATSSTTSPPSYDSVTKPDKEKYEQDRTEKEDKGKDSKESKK
# [2] = target: T1, Sodium channel protein type 9 subunit alpha; experiment: Inhibition of human Nav1.7 by patch clamp electrophysiology
# Target sequence in this assay (Q15858 whole entry): as above
# [3] = target: T1, Sodium channel protein type 9 subunit alpha; experiment: Inhibition of human Nav1.7 by sodium flux assay
# Target sequence in this assay (Q15858 whole entry): as above
# [4] = target: T1, Sodium channel protein type 9 subunit alpha; experiment: Inhibition of human Nav1.7 assessed as fold shift in IC50 in presence of BSA by sodium flux assay
# Target sequence in this assay (Q15858 whole entry, looked up): as the sequence (Q15858 whole entry) above
# [5] = Metabolic stability in human liver microsomes assessed as hepatic clearance; type: ADME, Microsome
# [6] = Metabolic stability in mouse liver microsomes assessed as hepatic clearance; type: ADME, Microsome
# [7] = AUC in mouse at 3 mg/kg, po; type: ADME, organism-based; conditions: in vivo
# [8] = target: Sodium channel protein type 5 subunit alpha (Homo sapiens, UniProt Q14524); experiment: Inhibition of human Nav1.5 by patch clamp electrophysiology
# [9] = target: Sodium channel protein type 1 subunit alpha (Homo sapiens, UniProt P35498); experiment: Inhibition of human Nav1.1 by patch clamp electrophysiology
# [10] = target: Sodium channel protein type 2 subunit alpha (Homo sapiens, UniProt Q99250); experiment: Inhibition of human Nav1.2 by patch clamp electrophysiology
# [11] = target: Sodium channel protein type 8 subunit alpha (Homo sapiens, UniProt Q9UQD0); experiment: Inhibition of human Nav1.6 by patch clamp electrophysiology
# [12] = Metabolic stability in human hepatocytes assessed as hepatic clearance; type: ADME, cell-based, Hepatocyte
# [13] = Metabolic stability in mouse hepatocytes assessed as hepatic clearance; type: ADME, cell-based, Hepatocyte
# [14] = Apparent permeability across apical to basolateral side in MDCK cells; type: ADME, cell-based, Canis lupus familiaris; conditions: dog
# MDR1 (P-gp) = experiment: Efflux ratio in MDCK-MDR1 cells; type: ADME, cell-based, Canis lupus familiaris; conditions: dog
# BCRP = experiment: Efflux ratio in MDCK-BCRP cells; type: ADME, cell-based, Canis lupus familiaris; conditions: dog
# [15] = Plasma protein binding in human; type: ADME, cell-free; conditions: read-out: PPB
# [16] = Plasma protein binding in mouse; type: ADME, cell-free; conditions: read-out: PPB
# Cytochrome P450 1A2 = target: T2, Cytochrome P450 1A2 (Homo sapiens, UniProt P05177); experiment: Inhibition of CYP1A2 (unknown origin); type: ADME
# T2 sequence (P05177 whole entry): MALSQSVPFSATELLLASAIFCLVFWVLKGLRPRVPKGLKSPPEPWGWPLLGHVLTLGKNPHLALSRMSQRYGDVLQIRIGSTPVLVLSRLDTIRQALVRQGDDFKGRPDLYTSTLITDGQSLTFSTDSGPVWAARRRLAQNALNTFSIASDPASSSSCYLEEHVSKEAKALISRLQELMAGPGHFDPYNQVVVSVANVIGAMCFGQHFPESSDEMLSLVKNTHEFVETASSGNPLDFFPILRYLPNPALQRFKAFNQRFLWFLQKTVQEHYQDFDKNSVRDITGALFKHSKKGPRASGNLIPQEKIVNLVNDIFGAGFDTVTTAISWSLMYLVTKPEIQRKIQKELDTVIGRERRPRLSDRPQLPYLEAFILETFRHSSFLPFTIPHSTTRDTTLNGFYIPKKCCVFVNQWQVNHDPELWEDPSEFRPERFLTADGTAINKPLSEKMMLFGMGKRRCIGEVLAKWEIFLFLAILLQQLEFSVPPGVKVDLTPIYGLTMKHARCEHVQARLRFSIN
# Cytochrome P450 2C19 = Cytochrome P450 2C19 (Homo sapiens, UniProt P33261); experiment: Inhibition of CYP2C19 (unknown origin); type: ADME
# Cytochrome P450 2C9 = Cytochrome P450 2C9 (Homo sapiens, UniProt P11712); experiment: Inhibition of CYP2C9 (unknown origin); type: ADME
# Cytochrome P450 2D6 = Cytochrome P450 2D6 (Homo sapiens, UniProt P10635); experiment: Inhibition of CYP2D6 (unknown origin); type: ADME
# Cytochrome P450 3A4 = Cytochrome P450 3A4 (Homo sapiens, UniProt P08684); experiment: Inhibition of CYP3A4 (unknown origin); type: ADME
# [17] = Kinetic solubility of compound; type: physicochemical; conditions: read-out: Kinetic_solubility
# [18] = Volume of distribution at steady state in mouse at 1 mg/kg, iv; type: ADME, organism-based; conditions: in vivo, read-out: Vdss
# [19] = Half life in mouse at 1 mg/kg, iv; type: ADME, organism-based; conditions: in vivo
# [20] = Cmax in mouse at 3 mg/kg, po; type: ADME, organism-based; conditions: in vivo
# [21] = Half life in mouse at 3 mg/kg, po; type: ADME, organism-based; conditions: in vivo
# [22] = Oral bioavailability in mouse at 3 mg/kg; type: ADME, organism-based; conditions: in vivo
# Mus musculus [23] = experiment: Analgesic activity in aconitine-induced nociception in IEM transgenic FVB mouse model assessed as reduction in pain response at 3 mg/kg, po pretreated for 2 hrs followed by aconitine administration measured for 30 mins post-aconitine dose relative to control; type: functional; set-up: scale not given: the % may be the effect or the level left; conditions: time 2.5 hrs
# Mus musculus [24] = experiment: Analgesic activity in aconitine-induced nociception in IEM transgenic FVB mouse model assessed as reduction in pain response at 10 mg/kg, po pretreated for 2 hrs followed by aconitine administration measured for 30 mins post-aconitine dose relative to control; type: functional; set-up: scale not given: the % may be the effect or the level left; conditions: time 2.5 hrs
# Mus musculus [25] = experiment: Analgesic activity in aconitine-induced nociception in IEM transgenic FVB mouse model assessed as reduction in pain response at 30 mg/kg, po pretreated for 2 hrs followed by aconitine administration measured for 30 mins post-aconitine dose relative to control; type: functional; set-up: scale not given: the % may be the effect or the level left; conditions: time 2.5 hrs
# Mus musculus [26] = experiment: Analgesic activity in aconitine-induced nociception in IEM transgenic FVB mouse model assessed as reduction in pain response at 100 mg/kg, po pretreated for 2 hrs followed by aconitine administration measured for 30 mins post-aconitine dose relative to control; type: functional; set-up: scale not given: the % may be the effect or the level left; conditions: time 2.5 hrs
# [27] = Drug concentration in plasma of aconitine-induced nociception in IEM transgenic FVB mouse model at 3 mg/kg, po pretreated for 2 hrs followed by aconitine administration measured for 30 mins post-aconitine dose; type: ADME, organism-based
# [28] = Drug concentration in plasma of aconitine-induced nociception in IEM transgenic FVB mouse model at 10 mg/kg, po pretreated for 2 hrs followed by aconitine administration measured for 30 mins post-aconitine dose; type: ADME, organism-based
# [29] = Drug concentration in plasma of aconitine-induced nociception in IEM transgenic FVB mouse model at 30 mg/kg, po pretreated for 2 hrs followed by aconitine administration measured for 30 mins post-aconitine dose; type: ADME, organism-based
# [30] = Drug concentration in plasma of aconitine-induced nociception in IEM transgenic FVB mouse model at 100 mg/kg, po pretreated for 2 hrs followed by aconitine administration measured for 30 mins post-aconitine dose; type: ADME, organism-based
# Mus musculus [31] = experiment: Analgesic activity in aconitine-induced nociception in IEM transgenic FVB mouse model assessed as inhibition of nociceptive behaviour at 3 to 100 mg/kg, po pretreated for 2 hrs followed by aconitine administration measured for 30 mins post-aconitine dose; type: functional, organism-based
# [32] = Drug concentration in brain of aconitine-induced nociception in IEM transgenic FVB mouse model at EC50 pretreated orally for 2 hrs followed by aconitine administration measured for 30 mins post-aconitine dose; type: ADME, tissue-based; conditions: route po, read-out: Ct
# [33] = Ratio of drug concentration in brain to plasma of aconitine-induced nociception in IEM transgenic FVB mouse model at EC50 pretreated orally for 2 hrs followed by aconitine administration measured for 30 mins post-aconitine dose; type: ADME; conditions: route po, read-out: BPR
# Sequence of Sodium channel protein type 5 subunit alpha (Q14524 whole entry): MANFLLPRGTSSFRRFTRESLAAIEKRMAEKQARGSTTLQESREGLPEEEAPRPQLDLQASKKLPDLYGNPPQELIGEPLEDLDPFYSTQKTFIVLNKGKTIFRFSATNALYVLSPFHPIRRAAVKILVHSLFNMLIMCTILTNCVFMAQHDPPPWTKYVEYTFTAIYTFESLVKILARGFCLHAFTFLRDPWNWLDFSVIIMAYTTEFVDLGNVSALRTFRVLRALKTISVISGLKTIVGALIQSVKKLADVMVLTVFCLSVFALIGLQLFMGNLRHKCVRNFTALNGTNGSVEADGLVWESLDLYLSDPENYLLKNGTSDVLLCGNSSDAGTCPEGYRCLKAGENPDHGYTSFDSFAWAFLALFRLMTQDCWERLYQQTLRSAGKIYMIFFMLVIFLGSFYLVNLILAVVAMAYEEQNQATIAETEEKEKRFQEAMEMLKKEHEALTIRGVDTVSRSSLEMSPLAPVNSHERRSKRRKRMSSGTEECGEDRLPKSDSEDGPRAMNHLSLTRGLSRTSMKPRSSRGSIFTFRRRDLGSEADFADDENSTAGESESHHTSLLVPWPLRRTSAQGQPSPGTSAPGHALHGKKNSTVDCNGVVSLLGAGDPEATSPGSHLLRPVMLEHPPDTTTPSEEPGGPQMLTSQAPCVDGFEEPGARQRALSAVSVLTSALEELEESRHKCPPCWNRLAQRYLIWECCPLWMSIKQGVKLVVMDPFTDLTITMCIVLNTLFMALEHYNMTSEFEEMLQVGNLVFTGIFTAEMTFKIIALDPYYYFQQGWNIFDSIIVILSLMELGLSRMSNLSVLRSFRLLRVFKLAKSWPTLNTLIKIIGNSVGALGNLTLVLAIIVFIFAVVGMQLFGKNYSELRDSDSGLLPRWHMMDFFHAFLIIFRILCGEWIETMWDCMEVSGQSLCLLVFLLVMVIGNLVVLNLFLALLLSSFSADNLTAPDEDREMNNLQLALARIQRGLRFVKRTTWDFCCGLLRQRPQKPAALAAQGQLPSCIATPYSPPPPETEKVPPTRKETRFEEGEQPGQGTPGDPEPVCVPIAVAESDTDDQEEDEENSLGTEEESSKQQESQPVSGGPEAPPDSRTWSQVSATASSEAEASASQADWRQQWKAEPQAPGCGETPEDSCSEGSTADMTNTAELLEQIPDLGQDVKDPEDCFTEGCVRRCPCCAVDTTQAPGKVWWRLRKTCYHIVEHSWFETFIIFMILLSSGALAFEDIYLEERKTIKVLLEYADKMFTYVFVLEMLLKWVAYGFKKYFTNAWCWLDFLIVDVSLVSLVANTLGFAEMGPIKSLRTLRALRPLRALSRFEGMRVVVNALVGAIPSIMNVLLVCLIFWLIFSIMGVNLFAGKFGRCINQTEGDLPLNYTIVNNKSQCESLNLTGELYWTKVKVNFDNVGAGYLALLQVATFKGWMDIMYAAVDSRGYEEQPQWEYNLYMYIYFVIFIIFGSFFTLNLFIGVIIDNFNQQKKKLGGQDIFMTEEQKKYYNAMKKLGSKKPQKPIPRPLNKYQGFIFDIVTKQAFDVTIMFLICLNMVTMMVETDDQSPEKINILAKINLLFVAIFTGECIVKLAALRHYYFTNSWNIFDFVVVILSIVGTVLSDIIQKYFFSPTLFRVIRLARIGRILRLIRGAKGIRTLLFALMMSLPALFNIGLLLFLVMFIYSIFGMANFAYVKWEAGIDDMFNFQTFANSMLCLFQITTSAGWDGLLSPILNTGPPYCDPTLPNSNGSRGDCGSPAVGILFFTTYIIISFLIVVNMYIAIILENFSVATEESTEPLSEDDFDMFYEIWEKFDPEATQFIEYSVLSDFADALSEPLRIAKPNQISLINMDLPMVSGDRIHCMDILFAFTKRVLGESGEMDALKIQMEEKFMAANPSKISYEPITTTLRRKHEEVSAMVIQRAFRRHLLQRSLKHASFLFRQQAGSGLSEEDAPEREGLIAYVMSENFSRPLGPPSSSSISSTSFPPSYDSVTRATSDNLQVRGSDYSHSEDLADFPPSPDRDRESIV
# Sequence of Cytochrome P450 3A4 (P08684 whole entry): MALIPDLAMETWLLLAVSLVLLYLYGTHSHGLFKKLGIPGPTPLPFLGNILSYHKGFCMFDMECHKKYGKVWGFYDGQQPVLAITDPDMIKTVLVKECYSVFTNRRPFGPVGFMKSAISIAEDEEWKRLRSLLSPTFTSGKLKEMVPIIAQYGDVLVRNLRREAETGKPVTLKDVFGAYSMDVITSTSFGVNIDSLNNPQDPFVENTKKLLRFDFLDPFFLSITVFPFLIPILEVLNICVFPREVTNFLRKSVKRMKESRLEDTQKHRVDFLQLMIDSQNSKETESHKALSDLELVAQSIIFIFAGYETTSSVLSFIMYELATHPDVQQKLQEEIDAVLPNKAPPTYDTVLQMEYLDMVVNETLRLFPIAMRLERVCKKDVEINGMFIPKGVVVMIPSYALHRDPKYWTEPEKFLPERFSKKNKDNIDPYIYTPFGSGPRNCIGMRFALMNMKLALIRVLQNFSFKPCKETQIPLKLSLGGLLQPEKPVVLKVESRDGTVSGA
# Sequence of Cytochrome P450 2D6 (P10635 whole entry): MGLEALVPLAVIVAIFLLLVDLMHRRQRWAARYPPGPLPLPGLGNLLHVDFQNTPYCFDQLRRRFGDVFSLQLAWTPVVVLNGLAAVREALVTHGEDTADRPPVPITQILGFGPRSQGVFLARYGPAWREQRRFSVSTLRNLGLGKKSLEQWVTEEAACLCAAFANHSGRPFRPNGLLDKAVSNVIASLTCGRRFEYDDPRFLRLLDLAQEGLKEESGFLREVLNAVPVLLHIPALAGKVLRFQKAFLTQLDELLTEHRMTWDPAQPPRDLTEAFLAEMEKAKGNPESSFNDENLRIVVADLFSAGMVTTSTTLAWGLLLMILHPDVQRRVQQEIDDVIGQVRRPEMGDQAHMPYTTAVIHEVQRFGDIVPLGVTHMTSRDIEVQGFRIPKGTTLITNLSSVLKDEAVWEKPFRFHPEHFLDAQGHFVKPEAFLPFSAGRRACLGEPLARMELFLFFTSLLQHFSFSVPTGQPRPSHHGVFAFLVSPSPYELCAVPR
structure (smiles),measurement,setting,value
CC1(C)CCN(C(=O)c2cc(C3CC3)c(OCC34CC5CC(CC(C5)C3)C4)cc2F)[C@@H]1C(=O)O,Ki,[1],0.058 µM
C[C@H]1C[C@@H](C(=O)O)N(C(=O)c2cc(C3CC3)c(OCC34CC5CC(CC(C5)C3)C4)cc2F)C1,Ki,[1],0.049 µM
C[C@H]1[C@H](O)CN(C(=O)c2cc(C3CC3)c(OCC34CC5CC(CC(C5)C3)C4)cc2F)[C@@H]1C(=O)O,Ki,[1],0.021 µM
O=C(O)[C@@H]1C[C@H](F)CN1C(=O)c1cc(C2CC2)c(OCC23CC4CC(CC(C4)C2)C3)cc1F,Ki,[1],0.56 µM
O=C(O)[C@@H]1[C@H](O)CCN1C(=O)c1cc(C2CC2)c(OCC23CC4CC(CC(C4)C2)C3)cc1F,Ki,[1],0.16 µM
O=C(O)[C@@H]1C2CC(C2)N1C(=O)c1cc(C2CC2)c(OCC23CC4CC(CC(C4)C2)C3)cc1F,Ki,[1],0.19 µM
O=C(O)[C@@H]1CC(F)(F)CN1C(=O)c1cc(C2CC2)c(OCC23CC4CC(CC(C4)C2)C3)cc1F,Ki,[1],0.035 µM
O=C(O)[C@@H]1CCCN1C(=O)c1cc(C2CC2)c(OCC23CC4CC(CC(C4)C2)C3)cc1F,Ki,[1],0.02 µM
same,IC50,[2],0.033 µM
same,IC50,[3],0.18 µM
same,fold change (FC),[4],2.2
same,CLhep predicted,[5],0.66 L/h/kg
same,CLhep predicted,[6],3.66 L/h/kg
same,AUC,[7]; read-out: AUC,79 nM·h
N#C[C@H]1C[C@@H](C(=O)O)N(C(=O)c2cc(C3CC3)c(OCC34CC5CC(CC(C5)C3)C4)cc2F)C1,Ki,[1],0.87 µM
C[C@@H]1[C@@H](C(=O)O)[C@H](C(=O)c2cc(C3CC3)c(OCC3CCN(Cc4c(Cl)cccc4Cl)CC3)cc2F)C[C@@H]1F,Ki,[1],0.0049 µM
same,IC50,[2],0.013 µM
same,IC50,[8],5.9 µM
same,IC50,[3],0.099 µM
same,CLhep predicted,[5],0.66 L/h/kg
same,CLhep predicted,[6],3.06 L/h/kg
same,AUC,"[7]; po, 3 mg/kg",9600 nM·h
same,IC50,[9],0.025 µM
same,IC50,[10],0.015 µM
same,IC50,[11],0.3 µM
same,CLhep predicted,[12],0.372 L/h/kg
same,CLhep predicted,[13],1.26 L/h/kg
same,Papp A→B,[14],190 nm/s
same,efflux ratio,MDR1 (P-gp),2.8
same,efflux ratio,BCRP,0.92
same,fraction unbound,[15],0.0001
same,fraction unbound,[16],0.0001
same,IC50,Cytochrome P450 1A2,> 10 µM
same,IC50,Cytochrome P450 2C19,> 10 µM
same,IC50,Cytochrome P450 2C9,> 10 µM
same,IC50,Cytochrome P450 2D6,> 10 µM
same,IC50,Cytochrome P450 3A4,> 10 µM
same,solubility kinetic,[17],58 µM
same,Vd,[18],0.94 L/kg
same,half-life,[19],1.2 h
same,Cmax,[20],1.5 µM
same,half-life,[21],3.6 h
same,F,[22],45%
same,Activity,Mus musculus [23],35%
same,Activity,Mus musculus [24],81%
same,Activity,Mus musculus [25],96%
same,Activity,Mus musculus [26],100%
same,concentration at 2.5 h,[27],1.77 µM
same,concentration at 2.5 h,[28],7.29 µM
same,concentration at 2.5 h,[29],20.8 µM
same,concentration at 2.5 h,[30],50.9 µM
same,EC50,Mus musculus [31],2.72 µM
same,concentration at 2.5 h,[32],0.33 µM
same,Kp at 2.5 h,[33],~0.12
O=C(O)[C@@H]1[C@@H](F)CCN1C(=O)c1cc(C2CC2)c(OCC23CC4CC(CC(C4)C2)C3)cc1F,Ki,[1],0.06 µM
C[C@@]1(C(=O)O)CCCN1C(=O)c1cc(C2CC2)c(OCC23CC4CC(CC(C4)C2)C3)cc1F,Ki,[1],0.1 µM
C[C@@H]1[C@@H](C(=O)O)[C@H](C(=O)c2cc(C3CC3)c(OCC34CC5CC(CC(C5)C3)C4)cc2F)C[C@@H]1F,Ki,[1],0.0018 µM
same,IC50,[2],0.01 µM
same,IC50,[8],6 µM
same,IC50,[3],0.16 µM
same,fold change (FC),[4],1
same,CLhep predicted,[5],0.66 L/h/kg
same,CLhep predicted,[6],3.18 L/h/kg
same,AUC,[7]; read-out: AUC,240 nM·h
